Measured values from patent publication US20090298897A1, “Treatment of Inflammatory Disorders With Triazole Compounds” (priority 2006, published 2009).
Values joined by “and” are separate entries in the source; they are usually repeats but may differ in a detail not shown here. Equal entries are not always repeated. “Also recorded” adds a separate entry of the source.

Legend:
[1] = test system: moderate to severe facial acne vulgaris; test: Treatment of acne vulgaris with oral rambazole (lesion counts); assay type: in vivo, human; details: for Table 5 (untitled, lesion count per subject): individual subjects; for No. of Responders (≧50% reduction in inflammatory lesions): of 16 subjects
Method: Sixteen patients with moderate to severe facial acne vulgaris received a daily oral dose of 1 mg of rambazole for 12 weeks. […] The average lesion reduction was 79%. See Tables 3 through 7 for additional individual data. See FIGS. 5 and 6, respectively, for a comparison of the response to treatment of inflammatory lesions versus non-inflammatory lesions.

[2] = test system: mild to moderate acne vulgaris; test: Treatment of acne vulgaris with topical rambazole; assay type: in vivo, human; details: after 12 weeks; daily topical 0.35% rambazole
[3] = test system: skin of volunteers, UVB; test: Effects of topical 0.35% rambazole on UVB-induced inflammation (chromametry); assay type: in vivo, human; details: topical 0.35% for 9 days, then 5 days UVB
Source text: In an investigator-blinded, placebo-controlled study, topical 0.35% rambazole was applied to the skin of volunteers for 9 days, followed by 5 days of induction of inflammation with UVB. Adapalene was used in the study as a standard anti-inflammatory agent.

[4] = test system: moderate to severe plaque type psoriasis; test: Treatment of psoriasis with oral rambazole (PASI score); assay type: in vivo, human; details: for % PASI Score from Baseline: individual subjects
Method: Seventeen patients with a Psoriasis Area and Severity Index (PASI) score of at least 5 (moderate to severe plaque type psoriasis) received a daily oral dose of 1 mg of rambazole. The evolution of the PASI score was monitored after 1, 2, 4 and 8 weeks of treatment and at the end of a 2-week follow-up period. […] Biopsies from lesions were taken and surface markers were analyzed.

[5] = test system: IL-12p40; test: IL-12 secretion by activated monocytes (IL-12p40 ELISA); assay type: cell-based, human; details: monocytes activated with Zymosan or 19 kDa lipoprotein for 18 h
Method: Peripheral blood mononuclear cells (PBMC) were isolated from healthy donors by density gradient centrifugation on Ficoll-Hypaque Plus and monocytes were selected by adherence. After overnight culture in RPMI 1640 supplemented with […] FBS, monocytes were activated with Zymosan or 19 kDa lipoprotein for 18 h, and IL-12p40 was measured in the supernatant by ELISA.

[6] = test system: IL-1α; test: Expression of IL-1α, rambazole compared to retinoic acid (FIG. 2); assay type: in vivo, human
Source text: Also unexpectedly, rambazole-treated lesions (such as, for example, psoriatic lesions) continue to improve and show reduced inflammatory patterns for at least 3 months after discontinuation of treatment. Further, in contrast with retinoids such as isotretinoin, rambazole-treated inflammatory lesions responded rapidly within the first 4 weeks of treatment. This finding supports an antiinflammatory action for rambazole in addition to the typical effects on proliferation and differentiation.

[7] = test system: IP-10; test: IP-10 expression and secretion in IFNγ-activated normal human epidermal keratinocytes (ELISA); assay type: cell-based; details: 50 U/mL IFNγ; rambazole 10^-5 M to 3×10^-8 M for 18 hours
Method: Fourth passage normal human epidermal keratinocytes were plated at 2,000 cells/well in low Ca^2+ KSFM. After 3 days incubation to 60% confluence, the medium was removed and cells were stimulated with 50 U/mL IFNγ and incubated with rambazole ranging from 10^-5 M to 3×10^-8 M for 18 hours. Interferon-inducible protein (IP-10) expression in the culture medium was determined using the IP-10 sandwich-type ELISA and all data were corrected for cell count. Values are represented as mean percentages±SD (n=4) versus drug solvent control.

[8] = test system: Interleukin-1 (IL-1); test: Expression of IL-1 in the skin of healthy volunteers (real-time PCR); assay type: in vivo, human
Method: In this randomized, double-blind, left-right, placebo-controlled trial, the expression of Interleukin-1 (IL-1) in the skin of 15 healthy subjects was evaluated after a once daily application of rambazole gel at two different concentrations (0.35% or 0.07%) on intact skin for 9 days. The IL-1 biomarker was analyzed with real-time PCR.

In the case of `CCC(CC)C(c1ccc(Nc2nc3ccccc3s2)cc1)n1cncn1` (centres unmarked) [rambazole], the “Table 4 (untitled, change of Table 3 count versus Visit 2), Min.” value ([1]; Visit No. 6, N 16) is reported as −165, the “Table 6 (untitled, summary of Table 5 lesion count), Max.” value ([1]; Visit No. 6, N 16) is reported as 65 and the “Table 6 (untitled, summary of Table 5 lesion count), Mean” value ([1]; Visit No. 6, N 16) is reported as 22.6. For the same molecule, the “Table 6 (untitled, summary of Table 5 lesion count), Median” value ([1]; Visit No. 6, N 16) was 26.0, the “Table 6 (untitled, summary of Table 5 lesion count), Min.” value ([1]; Visit No. 6, N 16) was 0 and the “Table 7 (untitled, change of Table 6 count versus Visit 2), Max.” value ([1]; Visit No. 6, N 16) was −22. The “Table 7 (untitled, change of Table 6 count versus Visit 2), Mean” value ([1]; Visit No. 6, N 16) was −58.6, the “Table 7 (untitled, change of Table 6 count versus Visit 2), Median” value ([1]; Visit No. 6, N 16) was −58.5 and the “Table 7 (untitled, change of Table 6 count versus Visit 2), Min.” value ([1]; Visit No. 6, N 16) was −165. For the same molecule, the “Table 5 (untitled, lesion count per subject)” value ([1]; Visit No. 6) was 0 (2×) and 1 (2×) and 3 (2×) and 25 and 37 and 22 and 34 (2×) and 29 and 41 and 40 and 27 and 65, the “Table 3 (untitled, lesion count), Max.” value ([1]; Visit No. 7, N 16) was 56 and the “Table 3 (untitled, lesion count), Mean” value ([1]; Visit No. 7, N 16) was 13.3. For the same molecule, the “Table 3 (untitled, lesion count), Median” value ([1]; Visit No. 7, N 16) was 8.0, the “Table 3 (untitled, lesion count), Min.” value ([1]; Visit No. 7, N 16) was 0 and the “Table 4 (untitled, change of Table 3 count versus Visit 2), Max.” value ([1]; Visit No. 7, N 16) was −14. For the same molecule, the “Table 4 (untitled, change of Table 3 count versus Visit 2), Mean” value ([1]; Visit No. 7, N 16) was −42.9, the “Table 4 (untitled, change of Table 3 count versus Visit 2), Median” value ([1]; Visit No. 7, N 16) was −35.0 and the “Table 4 (untitled, change of Table 3 count versus Visit 2), Min.” value ([1]; Visit No. 7, N 16) was −159. For the same molecule, the “Table 6 (untitled, summary of Table 5 lesion count), Max.” value ([1]; Visit No. 7, N 16) was 71, the “Table 6 (untitled, summary of Table 5 lesion count), Mean” value ([1]; Visit No. 7, N 16) was 21.3 and the “Table 6 (untitled, summary of Table 5 lesion count), Median” value ([1]; Visit No. 7, N 16) was 13.5. For the same molecule, the “Table 6 (untitled, summary of Table 5 lesion count), Min.” value ([1]; Visit No. 7, N 16) was 0, the “Table 7 (untitled, change of Table 6 count versus Visit 2), Max.” value ([1]; Visit No. 7, N 16) was −22 and the “Table 7 (untitled, change of Table 6 count versus Visit 2), Mean” value ([1]; Visit No. 7, N 16) was −59.9. The “Table 7 (untitled, change of Table 6 count versus Visit 2), Median” value ([1]; Visit No. 7, N 16) was −52.5, the “Table 7 (untitled, change of Table 6 count versus Visit 2), Min.” value ([1]; Visit No. 7, N 16) was −178 and the “Table 5 (untitled, lesion count per subject)” value ([1]; Visit No. 7) was 0 (2×) and 4 and 2 and 1 and 5 and 38 and 25 and 39 and 6 and 35 and 21 and 71 and 31 and 60 and 3. For the same molecule, the “Percent Responders (≧50% reduction in inflammatory lesions)” value ([1]; Week 4, 1 mg oral daily) was 31%, the “No. of Responders (≧50% reduction in inflammatory lesions)” value ([1]; Week 4) was 5 and the “Percent Responders (≧50% reduction in inflammatory lesions)” value ([1]; Week 8, 1 mg oral daily) was 56%. For the same molecule, the “No. of Responders (≧50% reduction in inflammatory lesions)” value ([1]; Week 8) was 9, the “Percent Responders (≧50% reduction in inflammatory lesions)” value ([1]; Week 12, 1 mg oral daily) was 100% and the “No. of Responders (≧50% reduction in inflammatory lesions)” value ([1]; Week 12) was 16. For the same molecule, the “Percent Responders (≧50% reduction in inflammatory lesions)” value ([1]; Week 16 (follow-up)) was 88%, the “No. of Responders (≧50% reduction in inflammatory lesions)” value ([1]; Week 16 (follow-up)) was 14 and the average lesion reduction ([1]; after 12 weeks, 1 mg oral daily) was 79%. The “time within which inflammatory lesions responded” value ([1]; rambazole-treated inflammatory lesions, in contrast with retinoids such as isotretinoin) was at most 4 weeks, the “reduction in global assessment score” value [2] was “approximately 40%” and the “phototoxicity (chromametry)” value [3] was “no indication of phototoxicity”. For the same molecule, the “side effects / tolerability” value ([4]; daily oral dose 1 mg, psoriasis patients) was “mild to moderate; also recorded: well tolerated”, the “time lesions continue to improve and show reduced inflammatory patterns after discontinuation of treatment” value ([4]; rambazole-treated lesions such as psoriatic lesions) was “at least 3 months” and the “mean reduction in PASI score” value ([4]; subjects that completed 8 weeks of treatment, daily oral dose 1 mg) was 51.4%. For the same molecule, the “% PASI Score from Baseline” value ([4]; week 1, 1 mg oral daily) was 100% (4×) and 93% and 81% and 88% and 80% and 92% (2×) and 113% and 87% and 97% and 89% (2×) and 79% and 108%, the “% PASI Score from Baseline” value ([4]; week 2, 1 mg oral daily) was 99% and 86% (2×) and 95% and 79% and 108% and 75% and 92% (2×) and 150% and 96% and 88% and 89% and 77% and 98% and 83% and 117% and the “% PASI Score from Baseline” value ([4]; week 4, 1 mg oral daily) was 99% and 88% and 81% and 57% and 84% (2×) and 78% and 104% and 85% and 97% and 70% and 69% and 80% and 60% and 107% and 206%. For the same molecule, the “% PASI Score from Baseline” value ([4]; week 8, 1 mg oral daily) was 96% and 55% and 109% and 47% and 67% and 73% and 62% and 79% and 43% and 35% and 34% and 41% and 86% and 97%, the “% PASI Score from Baseline” value ([4]; week 10 (end of 2-week follow-up)) was 81% and 27% and 105% and 51% and 36% and 49% and 45% and 37% and 73% and 52% and 4% and 34% and 28% and 70% and 87% and the “IL-12 secretion (IL-12p40 in supernatant)” value [5] was “dose-dependently suppressed; also recorded: suppression of IL-12”. The “expression of IL-1” value [6] was “decrease the expression of IL-1”, the “IP-10 expression and secretion” value [7] was “dose-dependently down regulated” and the “skin reaction reported by one subject” value ([8]; 0.35% rambazole, during one day after 8 days of treatment) was “mild itching”. For the same molecule, the “local skin reactions during 9 days of treatment” value ([8]; gel 0.35% or 0.07% once daily) was “no itching, irritating, stinging, burning or vesiculation occurred” and the “IL-1 expression in skin” value ([8]; gel 0.35% or 0.07% once daily on intact skin for 9 days, healthy subjects) was “dose-dependently decrease”.
